In patent publication US12503438B2, “Compounds for the treatment of kinase-dependent disorders” (Exelixis, Inc., priority 2019, dated 2025):
pIC50: −log10 of the molar value.

Legend:
Human Axl = target: T1, Human Axl (Homo sapiens, UniProt P30530, Q764R); assay: Human AXL kinase assay (33P-phosphoryl transfer radiometric, KinaseProfiler); conditions: biochemical activity; 10 μM ATP
T1 construct: Human Axl (residues H473-A894 with Q764R, 161 nM); purchased Eurofins Pharma Discovery Services UK Limited (KinaseProfiler service)
T1 sequence (P30530 473-894 Q764R): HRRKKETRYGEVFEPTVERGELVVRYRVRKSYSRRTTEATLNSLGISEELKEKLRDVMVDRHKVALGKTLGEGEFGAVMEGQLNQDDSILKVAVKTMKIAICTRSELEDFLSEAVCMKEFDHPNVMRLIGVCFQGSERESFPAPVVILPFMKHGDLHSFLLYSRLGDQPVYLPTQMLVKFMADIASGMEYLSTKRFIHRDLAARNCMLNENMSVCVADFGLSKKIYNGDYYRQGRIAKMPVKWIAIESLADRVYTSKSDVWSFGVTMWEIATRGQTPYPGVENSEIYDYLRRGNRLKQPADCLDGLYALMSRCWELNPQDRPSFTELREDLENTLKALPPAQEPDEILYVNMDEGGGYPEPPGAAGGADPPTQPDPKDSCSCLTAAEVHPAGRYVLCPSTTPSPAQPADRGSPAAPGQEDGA
Procedure: Kinase activity and compound inhibition were investigated using the ^33P-Phosphoryl transfer radiometric kinase assay, performed using the KinaseProfiler™ service of Eurofins Pharma Discovery Services UK Limited. Dose-response experiments were performed using nine compound concentrations in a 96-well microtiter plate. For each assay, all compounds were prepared to a 50× final assay concentration (50 μM) in 100% DMSO, then diluted in a half-log series, with the final top concentration at 1 μM. This working stock of the compound was added to the assay well as the first component in the reaction, followed by the remaining components as detailed in the following assay protocols below. The positive control wells (100% kinase activity) contain all components of the reaction including 2% DMSO (control for solvent effects), except the compound of interest. Blank wells contain all components of the reaction, with the reference inhibitor, staurosporine. This reference compound was used to abolish kinase activity and generated the 0% kinase activity base-line. IC50 values were calculated by nonlinear regression analysis using the sigmoidal dose-response (variable slope) curve fit on XLFit version 5.3 (ID Business Solutions).
Human Axl (residues H473-A894 with Q764R, 161 nM) was incubated with 8 mM MOPS pH 7.0, 0.2 mM EDTA, 250 μM KKSRGDYMTMQIG, 10 mM magnesium acetate, and 10 μM [y-^33P-ATP]. The reaction was initiated by the addition of the Mg/ATP mix. After incubation for 40 minutes at room temperature, the reaction was stopped by the addition of phosphoric acid to a concentration of 0.5%. A reaction aliquot of 10 μL was then spotted onto a P30 filtermat and washed four times for 4 minutes in 0.425% phosphoric acid and once in methanol prior to drying and scintillation counting. Incorporated ^33P was measured using the Wallac Microbeta scintillation counter (Perkin Elmer).

KDR = KDR (Homo sapiens, UniProt P35968); assay: KDR autophosphorylation ELISA in HUVEC cells; assay type: cell-based; parameters: endogenous in cells; host or cells: HUVEC (Lonza #C2519A); conditions: cellular activity, VEGF165-stimulated, phospho-KDR ELISA
In short: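 HUVEC, 24 h serum-free starvation; cpd 8-pt dilution, 0.3% DMSO final, 1 h; VEGF165 100 ng/mL, 5 min; cold lysis; phospho-KDR ELISA; IC50, 4PL.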

KDR, sequence (P35968 20-1356): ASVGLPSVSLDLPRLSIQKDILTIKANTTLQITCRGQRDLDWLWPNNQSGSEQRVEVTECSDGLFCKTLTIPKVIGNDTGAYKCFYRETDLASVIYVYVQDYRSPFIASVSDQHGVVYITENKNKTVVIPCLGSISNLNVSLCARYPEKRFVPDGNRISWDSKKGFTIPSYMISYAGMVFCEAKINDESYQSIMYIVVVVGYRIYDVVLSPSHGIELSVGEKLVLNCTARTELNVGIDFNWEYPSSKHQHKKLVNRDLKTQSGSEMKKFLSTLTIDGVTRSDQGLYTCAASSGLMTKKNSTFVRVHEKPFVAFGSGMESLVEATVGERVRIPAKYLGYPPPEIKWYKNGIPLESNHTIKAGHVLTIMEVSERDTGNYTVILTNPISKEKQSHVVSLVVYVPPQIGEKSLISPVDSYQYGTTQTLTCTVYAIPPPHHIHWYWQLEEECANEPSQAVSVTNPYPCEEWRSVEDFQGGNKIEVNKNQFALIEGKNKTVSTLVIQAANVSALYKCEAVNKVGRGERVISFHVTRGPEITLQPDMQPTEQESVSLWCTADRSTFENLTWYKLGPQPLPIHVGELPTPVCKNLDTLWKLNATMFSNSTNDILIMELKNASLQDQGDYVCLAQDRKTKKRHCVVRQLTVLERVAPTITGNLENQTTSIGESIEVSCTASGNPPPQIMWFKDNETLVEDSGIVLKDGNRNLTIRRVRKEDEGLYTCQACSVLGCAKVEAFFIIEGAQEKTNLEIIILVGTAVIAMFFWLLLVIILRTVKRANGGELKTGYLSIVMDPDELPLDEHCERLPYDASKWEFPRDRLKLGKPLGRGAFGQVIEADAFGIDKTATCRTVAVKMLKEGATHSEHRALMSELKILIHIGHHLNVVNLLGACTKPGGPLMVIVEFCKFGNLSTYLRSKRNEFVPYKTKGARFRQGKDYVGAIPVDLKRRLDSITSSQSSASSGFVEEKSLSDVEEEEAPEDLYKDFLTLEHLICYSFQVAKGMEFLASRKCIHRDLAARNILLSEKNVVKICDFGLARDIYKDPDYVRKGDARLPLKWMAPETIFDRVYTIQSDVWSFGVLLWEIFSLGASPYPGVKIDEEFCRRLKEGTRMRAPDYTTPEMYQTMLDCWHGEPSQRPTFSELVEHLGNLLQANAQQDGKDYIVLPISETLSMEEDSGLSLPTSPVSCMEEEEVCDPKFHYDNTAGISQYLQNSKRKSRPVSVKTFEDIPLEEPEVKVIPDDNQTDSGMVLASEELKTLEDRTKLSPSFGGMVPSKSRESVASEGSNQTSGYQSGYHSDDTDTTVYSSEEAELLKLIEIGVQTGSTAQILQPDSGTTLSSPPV

| Compound | pIC50 (Human Axl) | pIC50 (KDR) |
| --- | --- | --- |
| O=C(Nc1ccc(F)cc1)C1(C(=O)Nc2ccc(Oc3ccnc4cc(-c5cnoc5)ccc34)cc2)CC1 [Compound 57, 1-N′-(4-Fluorophenyl)-1-N-[4-[7-(1,2-oxazol-4-yl)quinolin-4-yl]oxyphenyl]cyclopropane-1,1-dicarboxamide] | ≥ 8.00 | 7.00 to 8.00 |
| Cn1ccc(-c2ccc3c(Oc4ccc(NC(=O)C5(C(=O)Nc6ccc(F)cc6)CC5)cc4)ccnc3c2)n1 [Compound 17, 1-N′-(4-Fluorophenyl)-1-N-[4-[7-(1-methylpyrazol-3-yl)quinolin-4-yl]oxyphenyl]cyclopropane-1,1-dicarboxamide] | 7.00 to 8.00 | ≥ 8.00 |
| O=C(Nc1ccc(F)cc1)C1(C(=O)Nc2ccc(Oc3ccnc4cc(-c5cccnc5)ccc34)cc2)CC1 [Compound 25, 1-N′-(4-Fluorophenyl)-1-N-[4-(7-pyridin-3-ylquinolin-4-yl)oxyphenyl]cyclopropane-1,1-dicarboxamide] | 7.00 to 8.00 | ≥ 8.00 |
| Cc1cc2c(Oc3ccc(NC(=O)C4(C(=O)Nc5ccc(F)cc5)CC4)cc3)ccnc2cc1-c1cnn(C)c1 [Compound 78, 1-N′-(4-Fluorophenyl)-1-N-[4-[6-methyl-7-(1-methylpyrazol-4-yl)quinolin-4-yl]oxyphenyl]cyclopropane-1,1-dicarboxamide] | ≥ 8.00 | 7.00 to 8.00 |
| CNC(=O)c1cc2c(Oc3ccc(NC(=O)C4(C(=O)Nc5ccc(F)cc5)CC4)cc3)ccnc2cc1-c1cnn(C)c1 [Compound 77, 1-N′-(4-Fluorophenyl)-1-N-[4-[6-(methylcarbamoyl)-7-(1-methylpyrazol-4-yl)quinolin-4-yl]oxyphenyl]cyclopropane-1,1-dicarboxamide] | 7.00 to 8.00 | 7.00 to 8.00 |
| Cc1cc(F)cc(C)c1NC(=O)C1(C(=O)Nc2ccc(Oc3ccnc4cc(-c5cnn(C)c5)ccc34)cc2)CC1 [Compound 82, 1-N′-(4-Fluoro-2,6-dimethylphenyl)-1-N-[4-[7-(1-methylpyrazol-4-yl)quinolin-4-yl]oxyphenyl]cyclopropane-1,1-dicarboxamide] | 7.00 to 8.00 | < 6.52 |
| O=C(Nc1ccc(F)cc1)C1(C(=O)Nc2ccc(Oc3ccnc4cc(-c5cnn(C6CCNCC6)c5)ccc34)cc2)CC1 [Compound 60, 1-N′-(4-Fluorophenyl)-1-N-[4-[7-(1-piperidin-4-ylpyrazol-4-yl)quinolin-4-yl]oxyphenyl]cyclopropane-1,1-dicarboxamide] | ≥ 8.00 | 7.00 to 8.00 |
| O=C(Nc1ccc(F)cc1)C1(C(=O)Nc2ccc(Oc3ccnc4cc(-c5ccn[nH]5)ccc34)cc2)CC1 [Compound 68, 1-N′-(4-Fluorophenyl)-1-N-[4-[7-(1H-pyrazol-5-yl)quinolin-4-yl]oxyphenyl]cyclopropane-1,1-dicarboxamide] | 7.00 to 8.00 | ≥ 8.00 |
| O=C(Nc1ccc(F)cc1)C1(C(=O)Nc2ccc(Oc3ccnc4cc(-c5cn[nH]c5)ccc34)cc2)CC1 [Compound 67, 1-N′-(4-Fluorophenyl)-1-N-[4-[7-(1H-pyrazol-4-yl)quinolin-4-yl]oxyphenyl]cyclopropane-1,1-dicarboxamide] | ≥ 8.00 | ≥ 8.00 |
| O=C(Nc1ccc(F)cc1)C1(C(=O)Nc2ccc(Oc3ccnc4cc(-c5cncnc5)ccc34)cc2)CC1 [Compound 27, 1-N′-(4-Fluorophenyl)-1-N-[4-(7-pyrimidin-5-ylquinolin-4-yl)oxyphenyl]cyclopropane-1,1-dicarboxamide] | ≥ 8.00 | 7.00 to 8.00 |
| O=C(Nc1ccc(F)cc1)C1(C(=O)Nc2ccc(Oc3ccnc4cc(-c5ccccn5)ccc34)cc2)CC1 [Compound 85, 1-N′-(4-Fluorophenyl)-1-N-[4-(7-pyridin-2-ylquinolin-4-yl)oxyphenyl]cyclopropane-1,1-dicarboxamide] | 7.00 to 8.00 | 7.00 to 8.00 |
| O=C(Nc1ccc(F)cc1)C1(C(=O)Nc2ccc(Oc3ccnc4cc(-c5cnn(CCO)c5)ccc34)cc2)CC1 [Compound 18, 1-N′-(4-Fluorophenyl)-1-N-[4-[7-[1-(2-hydroxyethyl)pyrazol-4-yl]quinolin-4-yl]oxyphenyl]cyclopropane-1,1-dicarboxamide] | ≥ 8.00 | ≥ 8.00 |
